Measurements from the supplement of paper PMC10307832.

Experiments:
Experiment in all cases: relative viability (nuclei count vs DMSO), 5 days (fraction); higher = more cells survive
[1] = compound: Cc1ccc(C(=O)Nc2ccc(CN3CCN(C)CC3)c(C(F)(F)F)c2)cc1C#Cc1cnc2cccnn12 [Ponatinib] + C[C@@H](Oc1cc(-c2cnn(C3CCNCC3)c2)cnc1N)c1c(Cl)ccc(F)c1Cl [Crizotinib] (partner 1 µM)
Outline: (§1)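 After 5 days of treatment, lung cancer cells in 1536-well plates were fixed and stained in a single step (final 0.05% Triton X-100, 1% formaldehyde, 1 ug/ml Hoechst) and their nuclei counted on 4× images. Treatment had been applied by pin tool the day after seeding as one drug alone or as a fixed anchor-drug dose with five library-drug doses (not always all listed) in √10 steps. Relative viability is the nuclei count of treated wells divided by that of vehicle wells, and values are medians of duplicate plates.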

[2] = compound: Cc1ccc(Nc2nccc(N(C)c3ccc4c(C)n(C)nc4c3)n2)cc1S(N)(=O)=O [Pazopanib] + O=C(CCCCCCC(=O)Nc1ccccc1)NO [Vorinostat] (partner 1 µM)
Outline: as §1

[3] = compound: Cc1ccc(C(=O)Nc2ccc(CN3CCN(C)CC3)c(C(F)(F)F)c2)cc1C#Cc1cnc2cccnn12 [Ponatinib] + CC(=O)c1c(C)c2cnc(Nc3ccc(N4CCNCC4)cn3)nc2n(C2CCCC2)c1=O [Palbociclib] (partner 0.5 µM)
Outline: as §1

[4] = compound: Cc1ccc(Nc2nccc(N(C)c3ccc4c(C)n(C)nc4c3)n2)cc1S(N)(=O)=O [Pazopanib] + CC(C)C[C@H](NC(=O)[C@H](Cc1ccccc1)NC(=O)c1cnccn1)B(O)O [Bortezomib] (partner 0.002 µM)
Outline: as §1

Row | Cell Line | relative viability ([1]; first compound 0.002 µM) | relative viability ([1]; first compound 0.006325 µM) | relative viability ([1]; first compound 0.06325 µM) | relative viability ([1]; first compound 0.2 µM) | relative viability ([2]; first compound 0.01 µM) | relative viability ([2]; first compound 0.03162 µM) | relative viability ([2]; first compound 0.1 µM) | relative viability ([2]; first compound 0.3162 µM) | relative viability ([2]; first compound 1 µM) | relative viability ([3]; first compound 0.002 µM) | relative viability ([3]; first compound 0.006325 µM) | relative viability ([3]; first compound 0.06325 µM) | relative viability ([3]; first compound 0.2 µM) | relative viability ([4]; first compound 0.01 µM) | relative viability ([4]; first compound 0.03162 µM) | relative viability ([4]; first compound 0.1 µM) | relative viability ([4]; first compound 0.3162 µM) | relative viability ([4]; first compound 1 µM)
1 | NCI-H358 | 0.536 | 0.512 | 0.517 | 0.502 | 0.752 | 0.656 | 0.782 | 0.728 | 0.694 | 0.137 | 0.129 | 0.148 | 0.136 | – | – | – | – | –
2 | NCI-H522 | – | – | – | – | 0.603 | 0.874 | 0.851 | 0.922 | 1.02 | 1.05 | 0.982 | 1.18 | 0.814 | – | – | – | – | –
3 | NCI-H596 | 0.905 | 0.891 | 0.917 | 0.843 | 0.598 | 0.634 | 0.578 | 0.691 | 0.642 | – | – | – | – | 0.872 | 1.14 | 0.962 | 1.16 | 1.02
4 | NCI-H1299 | 0.904 | 0.936 | 0.974 | 0.923 | – | – | – | – | – | – | – | – | – | 0.998 | 0.987 | 1.05 | 1.03 | 1.02
5 | NCI-H1395 | – | – | – | – | 0.586 | 0.768 | 0.673 | 0.734 | 1.07 | 0.626 | 0.671 | 0.572 | 0.47 | – | – | – | – | –
6 | NCI-H1563 | 0.843 | 0.792 | 0.921 | 0.843 | – | – | – | – | – | – | – | – | – | 0.788 | 0.873 | 0.947 | 0.913 | 0.985
7 | NCI-H1648 | – | – | – | – | – | – | 0.337 | 0.535 | 0.376 | 0.266 | 0.245 | 0.246 | 0.252 | – | – | – | – | –
8 | NCI-H1703 | 0.588 | 0.693 | 0.254 | 0.172 | – | – | – | – | – | – | – | – | – | 0.26 | 0.262 | 0.233 | 0.267 | 0.214
9 | NCI-H1792 | 0.956 | 0.988 | 1.1 | 0.976 | – | – | – | – | – | 0.605 | 0.66 | 0.655 | 0.62 | – | 0.958 | 0.916 | 0.949 | 0.935
10 | NCI-H1793 | – | – | – | – | – | 0.753 | 0.637 | 0.811 | 1.11 | 0.328 | 0.327 | 0.394 | 0.413 | – | – | – | – | –
11 | NCI-H1944 | 1.07 | 1.24 | 1.23 | 1.01 | 0.487 | 0.557 | 0.583 | 0.604 | 0.648 | 0.331 | 0.392 | 0.435 | 0.338 | – | – | – | – | –
12 | NCI-H2170 | 1.13 | 1.15 | 1.22 | 1.17 | 0.624 | 0.848 | 0.877 | 0.796 | 0.829 | 0.361 | 0.431 | 0.362 | 0.377 | – | – | – | – | –
13 | NCI-H2342 | – | – | – | – | 0.671 | 0.789 | 0.704 | 0.762 | 0.687 | 0.548 | 0.522 | 0.461 | 0.498 | – | – | – | – | –
14 | SK-MES-1 | 0.978 | 1 | 1.04 | 0.92 | 1.03 | 0.989 | 1.27 | 1.09 | 1.07 | 0.36 | 0.379 | 0.405 | 0.327 | – | – | – | – | –
15 | SW 900 | – | – | – | – | 0.465 | 0.33 | – | 0.545 | 0.53 | 0.484 | 0.485 | 0.569 | 0.516 | – | – | – | – | –
